# Patent US20010025105A1, “Certain substituted 1-aryl-3-piperazine-1'-yl propanones” (Molecular Geriatarics Corporation, priority 1997, published 2001)
# Assays:
# Assay type in all cases: cell-based
# [1] = test system: Proteus vulgaris SRI 180; test: Agar disc diffusion assay; settings: 240 ug/disc, about 24 hr at 37° C.; 0 = no measurable zone
# Experimental: (§1) The activity of the compounds is determined using the following assay. The compound is dissolved in DMSO at a concentration of 6 mg/ml and then diluted with water to a final concentration of 3 mg/ml in 50% DMSO (% DMSO was shown not to be inhibitory to the test organisms). An aliquot (0.08 ml) of each drug solution was transferred to filter paper discs (12.7 mm diameter, Scmeicherand Schuell) for use in the agar diffusion assay. The concentration of each drug on the filter paper disc was 240 ug/disc. The test organisms included the following: Gram-positive aerobes (Staphylococcus aureus SRI 1323, Streptococcus pneumoniae SRI 1167); Gram-negative aerobe (Proteus vulgaris SRI 180); and the yeast Candida albicans SRI 523. An agar disc diffusion assay was used to evaluate the antimicrobial activity of the test compounds. Briefly, cultures were prepared from 16-20 hr agar slant cultures by inoculating in physiological saline to a turbidity equivalent to a #0.5 McFarland turbidity standard for the bacteria and a #3 McFarland standard for C. albicans. The surface of Mueller-Hinton agar (15×100 mm plates, mm) were evenly inoculated with each standardized culture using a cotton swab. Filter paper discs containing the drug concentration listed above were then placed on the inoculated agar plates along with a disc containing the solvent used to dissolve each drug. The plates were incubated at 37° C. for about 24 hr and the diameters of the zones of inhibition measured with a vernier caliper. Positive control drugs consisted of streptomycin for use with the bacterial strains and 5-fluorocytosine for use with C. albicans. The positive control drugs were assayed as described above for the compounds of the present invention using the same concentration.
# [2] = test system: Candida albicans SRI 523; test: Agar disc diffusion assay; settings: 240 ug/disc, about 24 hr at 37° C.
# Experimental: as §1
# [3] = test system: Streptococcus pneumoniae SRI 1167; test: Agar disc diffusion assay; settings: 240 ug/disc, about 24 hr at 37° C.; + = zone too large to measure
# Experimental: as §1
# [4] = test system: Staphylococcus aureus SRI 1323; test: Agar disc diffusion assay; settings: 240 ug/disc, about 24 hr at 37° C.
# Experimental: as §1
# [5] = test system: microtubule cytoskeleton of human CG neuroblastoma cells; test: Antimicrotubule activity, tubulin immunofluorescence microscopy; settings: 2 hr at 37° C., read-out: Concentration where microtubule destabilization occurs
smiles,measurement,setting,value
"Cl.Cl.O=C(CCN1CCN(Cc2ccccc2)CC1)c1ccc(F)c2ccccc12 [Example 21, 1-(4″-Fluoronaphth-1″-yl)-3-(4′-benzyl-1′-piperazinyl)-1-propanone dihydrochloride]","Diameter of the zone of inhibition, P. vulgaris",[1],0^1 mm
same,"Diameter of the zone of inhibition, C. albicans",[2],26.6 mm
same,"Diameter of the zone of inhibition, S. pneumoniae",[3],40.7 mm
same,"Diameter of the zone of inhibition, S. aureus",[4],33.8 mm
same,minimal effective concentration,[5],20 µM
